From PubChem BioAssay (NCI)
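Method: 48-hour compound exposure of cells in 96-well plates, five concentrations, linear interpolation of endpoints. At the TGI there is no net growth.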

Assays:
Experiment in all cases: inhibition of tumour cell growth, NCI panel, 48 h
786-0 renal = system: 786-0 renal
A498 renal = system: A498 renal
A549 NSCLC = system: A549 NSCLC
ACHN renal = system: ACHN renal
BT-549 breast = system: BT-549 breast
CAKI-1 renal = system: CAKI-1 renal
CCRF-CEM leukemia = system: CCRF-CEM leukemia
COLO 205 colon = system: COLO 205 colon
DU-145 prostate = system: DU-145 prostate
EKVX NSCLC = system: EKVX NSCLC
HCC-2998 colon = system: HCC-2998 colon
HCT-116 colon = system: HCT-116 colon
HCT-15 colon = system: HCT-15 colon
HL-60(TB) leukemia = system: HL-60(TB) leukemia
HOP-62 NSCLC = system: HOP-62 NSCLC
HOP-92 NSCLC = system: HOP-92 NSCLC
HS 578T breast = system: HS 578T breast
HT29 colon = system: HT29 colon
IGROV1 ovarian = system: IGROV1 ovarian
K-562 leukemia = system: K-562 leukemia
KM12 colon = system: KM12 colon
LOX IMVI melanoma = system: LOX IMVI melanoma
M14 melanoma = system: M14 melanoma
MALME-3M melanoma = system: MALME-3M melanoma
MCF7 breast = system: MCF7 breast
MDA-MB-231 breast = system: MDA-MB-231 breast
MDA-MB-435 = system: MDA-MB-435
MDA-N = system: MDA-N
MOLT-4 leukemia = system: MOLT-4 leukemia
NCI-H226 lung = system: NCI-H226 lung
NCI-H23 lung = system: NCI-H23 lung
NCI-H460 lung = system: NCI-H460 lung
NCI-H522 lung = system: NCI-H522 lung
NCI/ADR-RES ovarian = system: NCI/ADR-RES ovarian
OVCAR-3 ovarian = system: OVCAR-3 ovarian
OVCAR-4 ovarian = system: OVCAR-4 ovarian
OVCAR-5 ovarian = system: OVCAR-5 ovarian
OVCAR-8 ovarian = system: OVCAR-8 ovarian
PC-3 prostate = system: PC-3 prostate
RPMI-8226 leukemia = system: RPMI-8226 leukemia
RXF 393 renal = system: RXF 393 renal
SF-268 CNS = system: SF-268 CNS
SF-295 CNS = system: SF-295 CNS
SF-539 CNS = system: SF-539 CNS
SK-MEL-2 melanoma = system: SK-MEL-2 melanoma
SK-MEL-28 melanoma = system: SK-MEL-28 melanoma
SK-MEL-5 melanoma = system: SK-MEL-5 melanoma
SK-OV-3 ovarian = system: SK-OV-3 ovarian
SN12C renal = system: SN12C renal
SNB-19 CNS = system: SNB-19 CNS
SNB-75 CNS = system: SNB-75 CNS
SR leukemia = system: SR leukemia
SW-620 colon = system: SW-620 colon
T-47D breast = system: T-47D breast
TK-10 renal = system: TK-10 renal
U251 CNS = system: U251 CNS
UACC-257 melanoma = system: UACC-257 melanoma
UACC-62 melanoma = system: UACC-62 melanoma
UO-31 renal = system: UO-31 renal
DLD-1 colon = system: DLD-1 colon
DMS 114 small cell lung = system: DMS 114 small cell lung
DMS 273 small cell lung = system: DMS 273 small cell lung
HOP-18 NSCLC = system: HOP-18 NSCLC
KM20L2 colon = system: KM20L2 colon
LXFL 529 NSCLC = system: LXFL 529 NSCLC
M19-MEL melanoma = system: M19-MEL melanoma
SNB-78 CNS = system: SNB-78 CNS

O=C1OC(CCCN2CCCCC2)(c2ccccc2)CC12CCCC2 (configuration not stated) showed a TGI (786-0 renal) of over 100 µM, a TGI (A498 renal) of 98.4 µM and a TGI (A549 NSCLC) of over 100 µM. For the same compound, the TGI (ACHN renal) was over 100 µM, the TGI (BT-549 breast) was over 100 µM and the TGI (CAKI-1 renal) was over 100 µM. For the same compound, the TGI (CCRF-CEM leukemia) was over 100 µM, the TGI (COLO 205 colon) was over 100 µM and the TGI (DU-145 prostate) was over 100 µM. The TGI (EKVX NSCLC) was over 100 µM, the TGI (HCC-2998 colon) was over 100 µM and the TGI (HCT-116 colon) was over 100 µM. It also gave a TGI (HCT-15 colon) of over 100 µM, a TGI (HL-60(TB) leukemia) of over 100 µM and a TGI (HOP-62 NSCLC) of over 100 µM. For the same compound, the TGI (HOP-92 NSCLC) was over 90.8 µM, the TGI (HS 578T breast) was over 100 µM and the TGI (HT29 colon) was over 92 µM. For the same compound, the TGI (IGROV1 ovarian) was over 100 µM, the TGI (K-562 leukemia) was over 96.3 µM and the TGI (KM12 colon) was over 100 µM. It also gave a TGI (LOX IMVI melanoma) of over 100 µM, a TGI (M14 melanoma) of 34.3 µM and a TGI (MALME-3M melanoma) of 55.7 µM. It also gave a TGI (MCF7 breast) of over 100 µM, a TGI (MDA-MB-231 breast) of over 100 µM and a TGI (MDA-MB-435) of over 100 µM. For the same compound, the TGI (MDA-N) was over 100 µM, the TGI (MOLT-4 leukemia) was over 100 µM and the TGI (NCI-H226 lung) was over 100 µM. The TGI (NCI-H23 lung) was over 100 µM, the TGI (NCI-H460 lung) was over 100 µM and the TGI (NCI-H522 lung) was over 100 µM. The TGI (NCI/ADR-RES ovarian) was over 100 µM, the TGI (OVCAR-3 ovarian) was over 100 µM and the TGI (OVCAR-4 ovarian) was over 100 µM. For the same compound, the TGI (OVCAR-5 ovarian) was over 100 µM, the TGI (OVCAR-8 ovarian) was over 100 µM and the TGI (PC-3 prostate) was over 100 µM. It also gave a TGI (RPMI-8226 leukemia) of over 100 µM, a TGI (RXF 393 renal) of over 100 µM and a TGI (SF-268 CNS) of over 100 µM. For the same compound, the TGI (SF-295 CNS) was over 100 µM, the TGI (SF-539 CNS) was over 92.1 µM and the TGI (SK-MEL-2 melanoma) was over 100 µM. The TGI (SK-MEL-28 melanoma) was 57 µM, the TGI (SK-MEL-5 melanoma) was 33.8 µM and the TGI (SK-OV-3 ovarian) was over 100 µM. The TGI (SN12C renal) was over 100 µM, the TGI (SNB-19 CNS) was over 100 µM and the TGI (SNB-75 CNS) was over 100 µM. For the same compound, the TGI (SR leukemia) was over 100 µM, the TGI (SW-620 colon) was over 100 µM and the TGI (T-47D breast) was over 100 µM. For the same compound, the TGI (TK-10 renal) was over 100 µM, the TGI (U251 CNS) was over 100 µM and the TGI (UACC-257 melanoma) was 48.7 µM. It also gave a TGI (UACC-62 melanoma) of over 100 µM and a TGI (UO-31 renal) of over 100 µM.
In the case of CC1(c2cccc(C3CC4(CCC3=O)OCCCCO4)c2)OCCO1 (configuration not stated), the TGI (786-0 renal) is reported as over 100 µM, the TGI (A498 renal) is reported as over 100 µM and the TGI (A549 NSCLC) is reported as over 100 µM. For the same compound, the TGI (ACHN renal) was over 100 µM, the TGI (CAKI-1 renal) was over 100 µM and the TGI (CCRF-CEM leukemia) was over 100 µM. The TGI (COLO 205 colon) was over 100 µM, the TGI (DLD-1 colon) was over 100 µM and the TGI (DMS 114 small cell lung) was over 100 µM. For the same compound, the TGI (DMS 273 small cell lung) was over 100 µM, the TGI (HCC-2998 colon) was over 100 µM and the TGI (HCT-116 colon) was over 100 µM. For the same compound, the TGI (HCT-15 colon) was over 100 µM, the TGI (HL-60(TB) leukemia) was over 100 µM and the TGI (HOP-18 NSCLC) was over 100 µM. It also gave a TGI (HOP-62 NSCLC) of over 100 µM, a TGI (HT29 colon) of over 100 µM and a TGI (IGROV1 ovarian) of over 100 µM. For the same compound, the TGI (K-562 leukemia) was over 100 µM, the TGI (KM12 colon) was over 100 µM and the TGI (KM20L2 colon) was over 100 µM. It also gave a TGI (LOX IMVI melanoma) of over 100 µM, a TGI (LXFL 529 NSCLC) of over 100 µM and a TGI (M14 melanoma) of over 100 µM. The TGI (M19-MEL melanoma) was over 100 µM, the TGI (MALME-3M melanoma) was over 100 µM and the TGI (MOLT-4 leukemia) was over 100 µM. For the same compound, the TGI (NCI-H226 lung) was over 100 µM, the TGI (NCI-H23 lung) was over 100 µM and the TGI (NCI-H460 lung) was over 100 µM. It also gave a TGI (NCI-H522 lung) of over 100 µM, a TGI (OVCAR-3 ovarian) of over 100 µM and a TGI (OVCAR-4 ovarian) of over 100 µM. It also gave a TGI (OVCAR-5 ovarian) of over 100 µM, a TGI (OVCAR-8 ovarian) of over 100 µM and a TGI (RPMI-8226 leukemia) of over 100 µM. The TGI (SF-268 CNS) was over 100 µM, the TGI (SF-295 CNS) was over 100 µM and the TGI (SF-539 CNS) was over 100 µM. It also gave a TGI (SK-MEL-2 melanoma) of over 100 µM, a TGI (SK-MEL-28 melanoma) of over 100 µM and a TGI (SK-MEL-5 melanoma) of over 100 µM. The TGI (SK-OV-3 ovarian) was over 100 µM, the TGI (SN12C renal) was over 100 µM and the TGI (SNB-19 CNS) was over 100 µM. It also gave a TGI (SNB-75 CNS) of over 100 µM, a TGI (SNB-78 CNS) of over 100 µM and a TGI (SW-620 colon) of over 100 µM. The TGI (TK-10 renal) was over 100 µM, the TGI (U251 CNS) was over 100 µM and the TGI (UACC-257 melanoma) was over 100 µM. It also gave a TGI (UACC-62 melanoma) of over 100 µM and a TGI (UO-31 renal) of over 100 µM.
